Patent US20240115729A1, “COMPOSITIONS AND METHODS FOR TARGETED ANTIFIBROTIC THERAPY IN CHRONIC PANCREATITIS” (University of Virginia Patent Foundation, priority 2021, published 2024)
Where “and” joins values, the source holds several entries; their conditions need not be identical. Equal entries are not always repeated.

Assays:
[1] = test system: caerulein-induced CP mice (inflamed pancreas) versus healthy mice; assay: In vivo validation of individual phage clones: ex vivo IVIS fluorescence of organs after co-injection of targeting phage (VT680) and wild type M13Ke phage (VT750); set-up: species or system mouse (C57BL/6J); settings: for CP-to-Healthy Ratio (fold change of specificity ratio): Pancreas; for specificity for CP over healthy pancreas: individual clones from Groups 2 and 3
Description: C57BL/6 J mice (6-12 week-old, female) were used for the in vivo phage screening. For chronic pancreatitis, caerulein (Bachem, Torrance, California, United States of America) was dissolved in sterile saline and administrated to mice twice a day, 8 hours apart for 14 consecutive days, at a concentration of 250 μg/kg body weight via intraperitoneal injection (Halbrook et al., 2017), as shown in FIG. 1A. During the 14-day course, intraperitoneal injections of 100 μg/kg buprenorphine were given every 3 days to minimize the induced pain. For healthy controls, c57BL/6 J mice were injected intraperitoneally with an equal volume of sterile saline following the same schedule as in the chronic pancreatitis models. […] Picrosirius red (Polysciences, Inc., Warrington, Pennsylvania, United States of America) was used to visualize collagen in paraffin-embedded pancreas sections (FIG. 1B).
Specificity of phage clones. After PHASTpep analysis and candidate clone selections, 18 candidate clones were grouped (4-5 clones per group, 4 groups total) based on sequence similarity using GibbsCluster Server 2.0 (Andreatta et al., 2017). by the Technical University of Denmark (FIG. 2). […] For each group, the fluorescently labeled candidate and WT phage were mixed and co-injected in CP and healthy mice (n=5) Phage accumulation was determined by measuring the ex vivo fluorescent intensity of the pancreas at 20 hours post-injection using the Fluorescent Molecular Tomography (FMT, PerkinElmer, Waltham, Massachusetts, United States of America) using the excitation and emission wavelength at 675 nm/720 nm for VT680 and 745 nm/800 nm for VT750. To account for variations of fluorescent labeling efficiency, the raw readouts of VT680 and VT750 were normalized to the dye-per-phage ratio (see Table 3 below).
The specificity ratio was calculated as % ID/g of the normalized VT680 divided by the % ID/g of the normalized VT750 (see Equation (1)). Quantifications are included in Table 4.
A similar procedure was applied to determine the specificity of individual phage clones in Groups 2 and 3. Candidate clones were labeled with VivioTag 680 (VT680, PerkinElmer, Waltham, MA) to match the detectable wavelength of the IVIS Spectrum Series (Perkin Elmer, Waltham, Massachusetts, United States of America). Fluorescent intensity was measured at 20 hours post-injection of candidate phage (VT680) and WT phage (VT750). Fold change of specificity ratio was calculated as the specificity ratio of CP mice divided by the specificity ratio of the healthy mouse (see Table 5).

CD31 (endothelium) = assay: Immunofluorescence colocalization (MCC) of VT680-labeled phage with cell marker in CP pancreas; assay type: in vivo, mouse; settings: CP pancreas sections
Excerpt: (§1) Immunofluorescence (IF). Post ex vivo imaging, mouse pancreata were submerged in Neg-50 Frozen Section Medium (Thermo Scientific, Waltham, Massachusetts, United States of America) and snap-frozen over liquid nitrogen vapor. The embedded tissues were cut into 5 μm sections using a cryostat (Leica Microsystems Inc., Buffalo Grove, Illinois, United States of America) for subsequent imaging with ZEISS LSM-880 Confocal Laser Scanning Microscope (Carl Zeiss Meditec, Inc., Jena, Germany) at the Advanced Microscopy Facility at the University of Virginia. Cell types of interest in the pancreatitis microenvironment were identified by immunohistochemistry using the following antibodies: rat anti-mouse CD31 at 1:200 dilution (endothelial markers; BD Biosciences, San Jose, California, United States of America), rat anti-mouse CD206 at 1:1000 dilution (M2 macrophage markers; Bio-Rad, Hercules, California, United States of America), rabbit anti-mouse cytokeratin 7 at 1:3000 dilution (CK-7, epithelial markers; Abcam, Cambridge, Massachusetts, United States of America), rabbit anti-mouse collagen IIIa at 1:200 dilution (ECM markers; Abcam, Cambridge, Massachusetts, United States of America), goat anti-mouse carboxypeptidase A1 at 1:200 dilution (CPA1, acini markers; R&D Systems, Inc., Minneapolis, Minnesota, United States of America), rat anti-mouse F4/80 at 1:500 (macrophage markers; Bio-Rad, Hercules, California, United States of America), and FITC-conjugated, mouse anti-mouse α-SMA at 1:200 dilution (MilliporeSigma, St. Louis, Missouri, United States of America). ALEXA FLUOR® 488 (Abcam, Cambridge, Massachusetts, United States of America) antibodies from appropriate species, including donkey anti-goat, donkey anti-rat, donkey anti-rabbit at 1:500 dilution, were used as secondary antibodies to locate the primary antibodies. IF-stained pancreatic sections were mounted with PROLONG™ Gold Antifade Mountant with DAPI (Thermo Fisher Scientific Inc, Waltham, Massachusetts, United States of America, United States of America) for nucleus visualization. IF images were taken on Ziess LSM 880 Confocal Microscope (ZIESS, Oberkochen, Germany) at the Advanced Microscopy Facility at the University of Virginia.
(§2) To identify the cell types that the CP targeting clones were binding, immunofluorescent analysis was performed on common cellular components in the CP microenvironment in the inflamed pancreas sections following in vivo validation of individual clones (FIG. 7). Mander's correlation coefficient (MCC) analysis was performed to determine colocalization of the targeting phage to the cell markers.

CK7 (epithelium) = assay: as above; assay type: in vivo, mouse; settings: CP pancreas sections
Excerpt: as §1, §2

[2] = test system: CPA-1+ cells (acinar cells); assay: as above; assay type: in vivo, mouse; settings: CP pancreas sections
Excerpt: as §1, §2

[3] = test system: F4/80+ cells (macrophages); assay: as above; assay type: in vivo, mouse; settings: CP pancreas sections
Excerpt: as §1, §2

[4] = test system: collagen IIIa+ cells (ECM); assay: as above; assay type: in vivo, mouse; settings: Col IIIa; CP pancreas sections
Excerpt: as §1, §2

[5] = test system: αSMA+ cells (activated PSC); assay: as above; assay type: in vivo, mouse; settings: CP pancreas sections
Excerpt: as §1, §2

[6] = test system: cellular components in the CP microenvironment; assay: Cellular selectivity of phage clones: one-way ANOVA and Tukey-Kramer comparison of MCC of all cell markers; assay type: in vivo, mouse
Excerpt: as §1
Statistical analysis. Statistical analysis of the data was performed by student t-test, one-way analysis of variance (ANOVA), and Tukey-Kramer test. All data presented are expressed as mean+standard error of at least three independent measurements. For all comparisons, p-values<0.05 were considered significant.
as §2

[7] = statistically significant selectivity for a single cellular component in CP

| Substance | Radiant efficiency Targeting:M13Ke ([1]; CP mouse, liver) | Radiant efficiency Targeting:M13Ke ([1]; CP mouse, pancreas) | Radiant efficiency Targeting:M13Ke ([1]; CP mouse, spleen) | CP-to-Healthy Ratio ([1]; Liver) | CP-to-Healthy Ratio (fold change of specificity ratio) [1] | CP-to-Healthy Ratio ([1]; Spleen) | Radiant efficiency Targeting:M13Ke ([1]; healthy mouse, liver) | Radiant efficiency Targeting:M13Ke ([1]; healthy mouse, pancreas) | Radiant efficiency Targeting:M13Ke ([1]; healthy mouse, spleen) | specificity for CP over healthy pancreas [1] | Mean Manders' Correlation Coefficient (MCC), fraction of phage overlapping cell marker (CD31 (endothelium)) | Mean Manders' Correlation Coefficient (MCC), fraction of phage overlapping cell marker (CK7 (epithelium)) | Mean Manders' Correlation Coefficient (MCC), fraction of phage overlapping cell marker [2] | Mean Manders' Correlation Coefficient (MCC), fraction of phage overlapping cell marker [3] | Mean Manders' Correlation Coefficient (MCC), fraction of phage overlapping cell marker [4] | Mean Manders' Correlation Coefficient (MCC), fraction of phage overlapping cell marker [5] | Cell type the phage clone shows specificity to ([6]; CP microenvironment) | Marker the phage clone shows specificity to ([6]; CP microenvironment) | Colocalized Markers (p < 0.05) [6, 7] | Corresponding Cellular Components [6, 7] |
| --- | --- | --- | --- | --- | --- | --- | --- | --- | --- | --- | --- | --- | --- | --- | --- | --- | --- | --- | --- | --- |
| SLPLGPM (displayed on phage) [7-mer peptide, candidate phage clone from Groups 2 and 3] | 0.64 | 6.42 | 3.49 | 0.921 | 1.286 | 1.215 | 0.69 | 5.00 | 2.87 | increased specificity for CP over healthy pancreas | 0.25 | 0.06 | 0.35 | 0.49 | 0.23 | 0.15 |  |  |  |  |
| MNSIAIP (displayed on phage) | 0.61 | 9.81 | 3.61 | 1.144 | 1.945 | 0.829 | 0.53 | 5.04 | 4.36 | increased specificity for CP over healthy pancreas | 0.24 | 0.05 | 0.633±0.179 and 0.63 | 0.37 | 0.34 | 0.07 | Acinar cells | CPA1^+ | CPA-1 | Acinar cells |
| SLTNSSF (displayed on phage) | 1.33 | 8.86 | 2.65 | 1.248 | 5.469 | 0.985 | 1.06 | 1.62 | 2.69 | increased specificity for CP over healthy pancreas | 0.13 | 0.11 | 0.22 | 0.804±0.090 and 0.80 | 0.33 | 0.06 | Macrophage |  |  | Macrophage |
| SNSQDLH (displayed on phage) | 0.73 | 6.22 | 3.27 | 1.428 | 3.009 | 0.165 | 0.51 | 2.07 | 3.11 | increased specificity for CP over healthy pancreas | 0.12 | 0.14 | 0.23 | 0.800±0.197 and 0.80 | 0.33 | 0.05 | Macrophage |  |  | Macrophage |
| HSGLNKQ (displayed on phage) [7-mer peptide, candidate phage clone selected by motif clustering analysis] | 0.63 | 6.07 | 3.42 | 1.254 | 0.611 | 1.157 | 0.50 | 9.93 | 2.96 |  |  |  |  |  |  |  |  |  |  |  |
| HPYSPLR [7-mer peptide, candidate phage clone from Groups 2 and 3] | 0.59 | 6.42 | 3.10 | 0.744 | 1.544 | 1.138 | 0.80 | 4.16 | 2.73 | increased specificity for CP over healthy pancreas | 0.35 | 0.08 | 0.25 | 0.41 | 0.27 | 0.13 |  |  |  |  |
| SANITNL (displayed on phage) [7-mer peptide, candidate phage clone selected by replicability between libraries] | 0.74 | 4.02 | 4.60 | 1.287 | 0.943 | 1.518 | 0.58 | 4.27 | 3.03 |  |  |  |  |  |  |  |  |  |  |  |
